# According to patent publication US20240158750A1, “STROMA-FREE NK CELL DIFFERENTIATION FROM HUMAN PLURIPOTENT STEM CELLS” (The Children's Medical Center Corporation, priority 2021, published 2024):
# What was measured:
# MDA-MB-231 cells = details: in MDA-MB-231 cells; cited from earlier work
# [1] = tested on: class I HDAC (e.g., HDAC1, HDAC2, HDAC3); details: cited from earlier work
# [2] = tested on: iPS-derived CD34+ hemogenic endothelial cells; experiment: Stroma-free differentiation on DLL4-coated plates; assay type: cell-based, human
# Experimental: FIG. 2 is a series of flow cytometry plot showing cells produced from a stroma-free differentiation protocol, which can be used to more specifically generate T or NK cells after 5 weeks. The culture conditions for T cells included: (i) EB-derived CD34^+ hemogenic endothelium (HE) on DLL4 coating (10 μg/ml), and (ii) IL-7 (50 ng/ml), SCF (100 ng/ml), Flt3 (100 ng/ml), and TPO (50 ng/ml, first 2 weeks). For more details concerning the stroma-free T cell differentiation protocol, see, e.g., International PCT publication WO 2021/150919, the content of which is incorporated herein by reference in its entirety. The culture conditions for NK cells included: EB-derived CD34^+ hemogenic endothelium (HE) on DLL4 coating (5 μg/ml), IL7 (10 ng/ml), SCF (50 ng/ml), and Flt3 (50 ng/ml).
# Hemogenic CD34^+ endothelial cells were first derived from iPS (Example 2). The iPS-derived CD34^+ hemogenic endothelial cells were cultured on tissue culture plates coated with Notch ligands (e.g., DLL4; e.g., 5 μg/ml or 10 μg/ml in PBS, 3 hours in room temperature) using media containing a cocktail of growth factors (e.g., Flt3, SCF, IL7). […]
# G9a (EHMT2) = experiment: Stroma-free NK cell differentiation with CRISPRi G9a (EHMT2) knockdown; assay type: cell-based, human; details: G9a knockdown by Dox induced CRISPRi for 14 days, representative flow cytometry plot
# Excerpt: FIGS. 5A-5C are a series of schematics and graphs showing that G9a (also referred to herein as EHMT2) repression promoted NK cell differentiation. FIG. 5A is a schematic showing the experimental design. FIG. 5B is representative flow cytometry results showing the production of CD5-CD56+NK cells from control iPSCs or iPSCs with EHMT2 (G9a) knockdown by doxycycline (Dox) induced CRISPRi (see, e.g., SEQ ID NO: 50) for 14 days. […] FIG. 5C is a dot pot showing the frequencies of CD5-CD56+NK cells derived from control iPSCs or iPSCs with EHMT2 (G9a) knockdown (n=3, * P<0.05).
# The iPSCs were then differentiated into CD34+HE cells and treated with Dox to induce G9a knockdown. The control or Dox treated cells were then differentiated into CD7+ lymphoid progenitors and eventually CD5-CD56+NK cells using the stroma-free methods described herein (see, e.g., Table 1).
# iPSC-derived EHT cells = experiment: RNA-seq of G9a-inhibitor treated EHT cells, PANTHER overrepresentation test; assay type: cell-based, human; details: for Client Text Box Input (fold Enrichment): UNC0224 treated vs control EHT cells
# Experimental: RNA-seq analysis was performed on the same samples as in FIG. 6A.
# [3] = tested on: iPSC-derived CD34+CD45+ HSPCs; experiment: ATAC-seq of iPSC-derived CD34+CD45+ HSPCs treated during EHT; assay type: cell-based, human; details: 500 nM or 1 μM during conversion of HE into HSPCs for 5 days, versus DMSO
# Experimental: FIGS. 6A-6C are a series of schematics and graphs showing that G9a modulates chromatin accessibility of lymphoid genes. FIG. 6A is a schematic showing the experimental design. FIG. 6B is a heatmap showing assay for transposase-accessible chromatin using sequencing (ATAC-seq) peaks enriched in iPSC-derived CD34+CD45+ HSPCs that were treated with control vehicle (“DMSO”), 500 nM of UNC0224 (“UNC low”), or 1 μM of UNC0224 (“UNC high”) during the conversion of CD34+CD45− HE into CD34+CD45+ HSPCs for 5 days; 5 peaks are shown, labeled K1-K5.
# FIGS. 6A-6C show the mechanism by which G9a (EHMT2) regulates lymphoid fate decision in iPSC-derived HSPCs (iPSC-HSPCs). The iPSCs were first differentiated into CD34+ HEs, and the cells were then treated with DMSO or G9a inhibitor UNC0224 during the EHT stage, which allowed the HEs to specify into CD34+CD45+ HSPCs. ATAC-seq analysis was then performed on these iPSC-HSPCs to detect ATAC peaks that indicated accessible chromatin regions (as indicated by higher ATAC-seq scores).
compound,measurement,setting,value
COc1cc2c(NC3CCN(C4CCCCC4)CC3)nc(N3CCCN(C(C)C)CC3)nc2cc1OCCCN1CCCCC1 [UNC0646],IC50,MDA-MB-231 cells,26 nM
Cn1cc(/C=C/C(=O)c2cccc(F)c2)cc1/C=C/C(=O)NO [MC1568],inhibition of class I HDAC activity,[1],"Class II HDAC (e.g., HDAC4 and HDAC5) inhibitor. Displays no inhibition of class I HDAC activity (e.g., HDAC1, HDAC2, HDAC3)."
"DLL4: Notch ligand Delta-like-4, coated on tissue culture plates",lineage outcome of differentiation,"[2]; higher concentration of DLL4 coating (e.g., 10 μg/ml)",promotes T cell differentiation
same,lineage outcome of differentiation,"[2]; lower concentration of DLL4 coating (e.g., 5 μg/ml)",facilitates the generation of CD56^+ NK cells
SEQ ID NO: 50: G9a CRISPRi gRNA: AATGGCCAAAAAGCATGTAG (chemistry not given here),CD5-CD56+NK cells,G9a (EHMT2),64.7%
COc1cc2c(NC3CCN(C)CC3)nc(N3CCCN(C)CC3)nc2cc1OCCCN(C)C [UNC0224],Client Text Box Input (fold Enrichment),iPSC-derived EHT cells; B cell mediated immunity (GO:0019724),7.3
same,Client Text Box Input (fold Enrichment),iPSC-derived EHT cells; T cell activation (GO:0042110),14.53
same,Client Text Box Input (fold Enrichment),iPSC-derived EHT cells; T cell differentiation (GO:0030217),18.46
same,Client Text Box Input (fold Enrichment),iPSC-derived EHT cells; adaptive immune response (GO:0002250),6.79
same,Client Text Box Input (fold Enrichment),iPSC-derived EHT cells; adaptive immune response based on somatic recombination of immune receptors built from immunoglobulin superfamily domains (GO:0002460),7.89
same,Client Text Box Input (fold Enrichment),iPSC-derived EHT cells; antigen processing and presentation (GO:0019882),29.42
same,Client Text Box Input (fold Enrichment),iPSC-derived EHT cells; cell activation (GO:0001775),5.69
same,Client Text Box Input (fold Enrichment),iPSC-derived EHT cells; cell-cell adhesion (GO:0098609),4.83
same,Client Text Box Input (fold Enrichment),iPSC-derived EHT cells; cellular component assembly (GO:0022607),2.21
same,Client Text Box Input (fold Enrichment),iPSC-derived EHT cells; cellular component biogenesis (GO:0044085),2.44
same,Client Text Box Input (fold Enrichment),iPSC-derived EHT cells; cellular component organization or biogenesis (GO:0071840),1.63
same,Client Text Box Input (fold Enrichment),iPSC-derived EHT cells; cellular protein-containing complex assembly (GO:0034622),4.21
same,Client Text Box Input (fold Enrichment),iPSC-derived EHT cells; gene expression (GO:0010467),1.58
same,Client Text Box Input (fold Enrichment),iPSC-derived EHT cells; immune effector process (GO:0002252),6.63
same,Client Text Box Input (fold Enrichment),iPSC-derived EHT cells; immune response (GO:0006955),2.87
same,Client Text Box Input (fold Enrichment),iPSC-derived EHT cells; immune system process (GO:0002376),2.61
same,Client Text Box Input (fold Enrichment),iPSC-derived EHT cells; immunoglobulin mediated immune response (GO:0016064),7.3
same,Client Text Box Input (fold Enrichment),iPSC-derived EHT cells; leukocyte activation (GO:0045321),6.09
same,Client Text Box Input (fold Enrichment),iPSC-derived EHT cells; leukocyte cell-cell adhesion (GO:0007159),15.11
same,Client Text Box Input (fold Enrichment),iPSC-derived EHT cells; leukocyte mediated immunity (GO:0002443),7.27
same,Client Text Box Input (fold Enrichment),iPSC-derived EHT cells; lymphocyte activation (GO:0046649),6.42
same,Client Text Box Input (fold Enrichment),iPSC-derived EHT cells; lymphocyte mediated immunity (GO:0002449),7.62
same,Client Text Box Input (fold Enrichment),iPSC-derived EHT cells; positive regulation of T cell activation (GO:0050870),22.09
same,Client Text Box Input (fold Enrichment),iPSC-derived EHT cells; positive regulation of biological process (GO:0048518),2.02
same,Client Text Box Input (fold Enrichment),iPSC-derived EHT cells; positive regulation of cell activation (GO:0050867),6.29
same,Client Text Box Input (fold Enrichment),iPSC-derived EHT cells; positive regulation of cell adhesion (GO:0045785),17.95
same,Client Text Box Input (fold Enrichment),iPSC-derived EHT cells; positive regulation of cell-cell adhesion (GO:0022409),21.54
same,Client Text Box Input (fold Enrichment),iPSC-derived EHT cells; positive regulation of cellular process (GO:0048522),2.11
same,Client Text Box Input (fold Enrichment),iPSC-derived EHT cells; positive regulation of immune system process (GO:0002684),5.43
same,Client Text Box Input (fold Enrichment),iPSC-derived EHT cells; positive regulation of leukocyte activation (GO:0002696),6.29
same,Client Text Box Input (fold Enrichment),iPSC-derived EHT cells; positive regulation of leukocyte cell-cell adhesion (GO:1903039),22.09
same,Client Text Box Input (fold Enrichment),iPSC-derived EHT cells; positive regulation of lymphocyte activation (GO:0051251),6.53
same,Client Text Box Input (fold Enrichment),iPSC-derived EHT cells; production of molecular mediator of immune response (GO:0002440),7.58
same,Client Text Box Input (fold Enrichment),iPSC-derived EHT cells; protein-containing complex assembly (GO:0065003),3.99
same,Client Text Box Input (fold Enrichment),iPSC-derived EHT cells; protein-containing complex subunit organization (GO:0043933),3.43
same,Client Text Box Input (fold Enrichment),iPSC-derived EHT cells; regulation of T cell activation (GO:0050863),16.25
same,Client Text Box Input (fold Enrichment),iPSC-derived EHT cells; regulation of cell activation (GO:0050865),5.42
same,Client Text Box Input (fold Enrichment),iPSC-derived EHT cells; regulation of cell adhesion (GO:0030155),10.77
same,Client Text Box Input (fold Enrichment),iPSC-derived EHT cells; regulation of cell-cell adhesion (GO:0022407),15.11
same,Client Text Box Input (fold Enrichment),iPSC-derived EHT cells; regulation of immune system process (GO:0002682),4.07
same,Client Text Box Input (fold Enrichment),iPSC-derived EHT cells; regulation of leukocyte activation (GO:0002694),5.49
same,Client Text Box Input (fold Enrichment),iPSC-derived EHT cells; regulation of leukocyte cell-cell adhesion (GO:1903037),16.89
same,Client Text Box Input (fold Enrichment),iPSC-derived EHT cells; regulation of lymphocyte activation (GO:0051249),5.82
same,RNA-seq gene expression change,iPSC-derived EHT cells; treated versus control EHT cells,upregulation of genes associated with lymphoid development and function
same,ATAC-seq peaks upregulated in treated cells,[3],associated with genes that are responsible for lymphoid differentiation/function
COc1cc2c(NC3CCN(CC4CCCCC4)CC3)nc(N3CCCN(C(C)C)CC3)nc2cc1OCCCN1CCCCC1 [UNC0631],IC50,MDA-MB-231 cells,25 nM
